The record followed here is patent US7410975B2, “Small molecule toll-like receptor (TLR) antagonists” (Coley Pharmaceutical Group, Inc., priority 2003, dated 2008).

What all share (design): species or system BALB/c mice
Data set [1] is described as follows: In vivo toxicity in mice: body weight, mortality, white blood cell differential (Example 9). An excerpt:
FIG. 2 is a pair of graphs depicting results of an in vivo toxicity assay in mice for specific quinoline and quinazoline compounds. […] N=3 for each treatment group.
FIG. 3 is a bar graph depicting total and differential white blood cell counts in mice measured five days after administration of a single intraperitoneal dose of specific quinoline and quinazoline compounds. N=3 for each treatment group.
Female BALB/c mice (n=3 per group) were given a single intraperitoneal bolus injection of CMZ 203-43 (1.0 or 4.0 mg), CMZ 203-34 (1.0 or 4.0 mg) or CMZ 203-49 (1.0 or 4.0 mg) in a volume of 0.2 ml. Compound CMZ 203-43 has the structural formula
Other mice received 10% dimethyl sulfoxide (DMSO) in an identical manner. Animals were weighed immediately prior to injection (day 1) and then daily until day 5. On day 5, blood was collected by cardiac puncture and analyzed for hematological and biochemical parameters. Animals were monitored daily for morbidity and mortality.
All of the mice receiving 4.0 mg CMZ 203-43 group were dead on day 4.
Data for mice treated with 4.0 mg CMZ 203-43 was not available because all these mice were dead before day 5.

The subject of data set [2] is IP-10 induction by CpG ODN 2006. Put plainly: In vivo inhibition of IP-10 induction by CpG ODN 2006 (Example 10). Particulars: 40 μg intraperitoneal 1 h before 100 μg CpG ODN 2006 s.c.; bled at 3 hr. On the procedure:
FIG. 4 is a bar graph depicting in vivo inhibition of IP-10 induction (pg/ml) by CpG ODN 2006 following pretreatment with PBS control or a quinoline compound (203-43) or various indicated quinazoline compounds (203-34, 203-49, or 203-51). N=5 for each group.
(§1) BALB/c mice (n=5) were pretreated with intraperitoneal injection of 40 μg quinoline 203-43, quinazoline 203-34, 203-49, or 203-51, or with 100 μl of sterile phosphate buffered saline (PBS) control. One hour after the injection, mice were injected subcutaneously with 100 μg CpG ODN 2006. Animals were bled at 3 hr post injection with CpG ODN 2006 and IP-10 levels in plasma measured by IP-10-specific enzyme-linked immunosorbent assay (ELISA).

Data set [3] concerns TNF-α induction by CpG ODN 2006. As to the kind of experiment: In vivo inhibition of TNF-α induction by CpG ODN 2006 (Example 11). Particulars: 40 μg intraperitoneal 1 h before 100 μg CpG ODN 2006 s.c.; bled at 1 hr. The procedure: FIG. 5 is a bar graph depicting in vivo inhibition of TNF-α induction (pg/ml) by CpG ODN 2006 following pretreatment with PBS control or a quinoline compound (203-43) or various indicated quinazoline compounds (203-34, 203-49, or 203-51). N=5 for each group.
as §1
Groups of BALB/c mice treated as in Example 10 were also analyzed for TNF-α. Animals were bled at 1 hr post injection with CpG ODN 2006 and TNF-α levels in plasma measured by TNF-α-specific ELISA.

[4] abbreviates: 4.0 mg single intraperitoneal injection.

Entries after “also recorded” stand apart in the source; their conditions may differ.

On to `CN(C)CCNc1cc(-c2ccc(N3CCN(C)CC3)cc2)nc2ccccc12` [CMZ 203-43], for which the body weight change result in data set [1] (1.0 mg single intraperitoneal injection, 5 days) is given as “significant weight loss”. Further, in data set [1] (1.0 mg single intraperitoneal injection, day 5), the “white blood cell differential” value was “significant neutrophilia”. In addition, in data set [1] (setting [4]), the morbidity and mortality result was “sick and had to be sacrificed on day 3; also recorded: dead on day 4”; the necropsy finding result is “bowel obstruction”. The “serum IP-10 concentration versus PBS control” value in data set [2] is “significantly reduced”. For the same molecule, the “serum TNF-α concentration versus PBS control” value in data set [3] is “significantly reduced”.
